Data: patent US20110262442A1, “COMPOSITIONS FOR TREATING CNS DISORDERS” (Adenios, Inc., priority 2009, published 2011)

Assays:
Z310 cells = test: Jurkat cell migration across Z310-seeded Transwell (choroid plexus); type: cell-based, murine; conditions: Z310 cells on Transwell, migrated cells counted after 24 hours, n=1
Method: The choroid plexus (“CP”) controls lymphocyte migration into the CNS. The CP expresses the A1 and A2A adenosine receptors. EAE is prevented in mice when A2A adenosine receptor activity is blocked. EAE is enhanced when the A1 adenosine receptor is missing. It was hypothesized that A2A adenosine receptor activation promotes lymphocyte migration across the CP. Z310 cells are a murine choroid plexus cell line. To test the hypothesis, Transwell membranes were seeded with Z310 cells and allowed to grow to confluencey. 2×10^6 Jurkat cells were added to the upper chamber with or with out NECA (n=1, general AR agonist), CCPA (n=1, AAR agonist), CGS 21860 (n=1, A2AAR agonist), or DMSO vehicle (n=1). After 24 hours, migrated cells in the lower chamber were counted. Values are relative to the number of cells that migrate through non-Z310 seeded transwells and the results are shown in FIG. 12.

blood brain barrier [1] = test: Evans Blue dye extravasation across the blood brain barrier; type: in vivo, mice; conditions: single i.v. injection 100 μl 0.01 nM, 1 h before dye
Method: The objective of this experiment was to determine if the blood brain barrier could be modulated by activation of adenosine receptors. NECA is a non-selective adenosine receptor agonist, with similar affinities for A1, A2A and A3 adenosine receptors and a low affinity for the A2b adenosine receptor. In order to determine if activation of adenosine receptors would induce extravasation of Evans Blue dye across the blood brain barrier (BBB), mice were treated with: NECA, a non-selective adenosine receptor agonist (n=5, 100 μl 0.01 nM); SCH58261, an A2A adenosine receptor specific antagonist (n=5, 1 mg/kg); pertussis toxin, an agent known to induce BBB leakiness and as such used as a positive control (n=7, 200 μl); and, PBS as a vehicle control (n=5, 100 μl). CD73^−/− mice, which lack the ability to produce extracellular adenosine, were also treated with NECA (n=4, 100 μl 0.01 nM). Treatments were administered as a single i.v. injection one hour prior to i.v. injection of 200 μl 1% Evans Blue dye ([…] total dye injected). Four hours after administration of Evans Blue, mice were anesthetized with a ketamine/xylazine mix and perfused via the left ventricle with ice cold PBS. […] Following extraction, the tissue/solvent mixture was centrifuged at 500×g for 30 minutes and 100 μl of supernatant was read on a BioTex spectrophotometer at 620 nm. Data is expressed as μg Evans Blue/ml DMF.

blood brain barrier [2] = test: Evans Blue dye extravasation across the blood brain barrier in mice immunized for EAE; type: in vivo; conditions: WT EAE mice; 100 μl 0.01 nM on day 1, 3, 5, 7, 9; dye on day 10
Method: In order to determine if activation of adenosine receptors would induce extravazation of Evans Blue dye across the blood brain barrier (BBB), mice were first treated on day one with NECA, a non-selective adenosine receptor agonist (n=2, 100 μl 0.01 nM); and, PBS as a vehicle control (n=2, 100 μl). On day 2 mice were then immunized with CFA-MOG35-55 and pertussis to induce EAE. Then NECA or PBS was administered every other day on day 3, day 5, day 7 and day 9. On day 10, mice were injected intravenously with 200 μl 1% Evans Blue dye ([…] total dye injected). Six hours after administration of Evans Blue, mice were anesthetized with a ketamine/xylazine mix and perfused via the left ventricle with ice cold PBS. Brains were harvested and homogenized in n,n-dimethylformamide (DMF) at 5 μl/mg (v:w). Tissue was incubated for 72 hours at room temperature in DMF to extract the dye. Following extraction, the tissue/solvent mixture was centrifuged at 500×g for 30 minutes and 100 μl of supernatant was read on a BioTex spectrophotometer at 620 nm.

hCMEC/D3 cells [3] = test: cAMP levels in human brain endothelial cells (cAMP Screen kit); type: cell-based; conditions: 15 minutes treatment, various concentrations (CCPA: at high levels)
Method: Adenosine receptor activation regulates cAMP levels in cells. In order to determine the sensitivity of human brain endothelial cells to adenosine receptor induced cAMP regulation, human brain endothelial cells were cultured with adenosine receptor agonists at various concentrations, followed by cAMP level analysis, as shown in FIG. 13.
HCMECD3 cells were grown to confluencey on 24 well plates. As adenosine receptor (“AR”) stimulation is known to influence cAMP levels, cells were treated with or without various concentrations of NECA (general AR agonist), CCPA (A1 AR agonist), CGS 21860 (A2A AR agonist), DMSO vehicle, or Forksolin (induces cAMP). After 15 minutes, lysis buffer was added and the cells were frozen at −80 C to stop the reaction. Duplicate samples were used for each condition. cAMP levels were assayed using a cAMP Screen kit (Applied Biosystems, Foster City, Calif.).

hCMEC/D3 cells [4] = test: Jurkat cell migration across hCMEC/D3-seeded Transwell (in vitro BBB); type: cell-based, human; conditions: hCMEC/D3 on Transwell, migrated cells counted after 24 hours
Source text: The blood brain barrier (“BBB”) is comprised of endothelial cells. During late stages of EAE, lymphocytes are known to cross the BBB. In order to determine if adenosine receptor stimulation of brain endothelial cells could promote lymphocyte migration through the BBB, an in vitro BBB was established. The human brain endothelial cell line hCMEC/D3 (Weksler et al., “Blood-brain Barrier-specific Properties of a Human Adult Brain Endothelial Cell Line,” […] (2005); Poller et al., “The Human Brain Endothelial Cell Line hCMEC/D3 as a Human Blood-brain Barrier Model for Drug Transport Studies,” J. Neurochem. 107(5):1358-1368 (2008), which are hereby incorporated by reference in their entirety) was obtained, which has been previously described as having BBB properties.
hCMEC/D3 cells were seeded onto Transwell and allowed to grow to confluencey. 2×10^6 Jurkat cells were added to the upper chamber with or without NECA (general adenosine receptor [AR] agonist), CCPA (A1 AR agonist), CGS 21860 (A2A AR agonist), or DMSO vehicle. After 24 hours, migrated cells in the lower chamber were counted. Values are relative to the number of cells that migrate through non-HCMECD3 seeded transwells.

Compound: CCNC(=O)[C@H]1O[C@@H](n2cnc3c(N)ncnc32)[C@H](O)[C@@H]1O [NECA, 5′-N-ethylcarboxamidoadenosine]
- lymphocyte (Jurkat) migration across the CP (Z310 cells): induced migration
- Evans Blue dye migration across the BBB vs. PBS control (blood brain barrier [1]; CD73−/− mice): almost five fold increase
- Evans Blue dye migration across the BBB vs. control mice (blood brain barrier [1]; WT mice): increase over control mice
- BBB permeability (Evans Blue dye) over PBS control EAE mice (blood brain barrier [2]): increase in BBB permeability
- cAMP levels (hCMEC/D3 cells [3]): increased cAMP levels
- lymphocyte (Jurkat) migration across the in vitro BBB (hCMEC/D3 cells [4]): induced some migration
